Measured values as given in US9023821B2, “Use of MicroRNA for treating diseases associated with a dysfunction of the cilia in multiciliated epithelial cells” (Centre National de la Recherche Scientifique, priority 2009, dated 2015).

Legend:
[1] = test system: human airway epithelial cells (HAECs); assay: High-throughput sequencing (HTS) of miRNAs at four stages of differentiation of HAECs; conditions: for Modulation (ratio of the level of intensity of expression in log2 in two stages of differentiation) measured by high-throughput sequencing, D7 − D0 / Modulation (ratio of the level of intensity of expression in log2 in two stages of differentiation) measured by high-throughput sequencing, FC − D7 / Modulation (ratio of the level of intensity of expression in log2 in two stages of differentiation) measured by high-throughput sequencing, WD − D0 / Modulation (ratio of the level of intensity of expression in log2 in two stages of differentiation) measured by high-throughput sequencing, WD − FC / Level of intensity of expression in log2 measured by high-throughput sequencing, D0 / Level of intensity of expression in log2 measured by high-throughput sequencing, D7 / Level of intensity of expression in log2 measured by high-throughput sequencing, FC / Level of intensity of expression in log2 measured by high-throughput sequencing, WD: Table VI; for Modulation (ratio of the level of intensity of expression in log2 in two stages of differentiation), D7 − D0 / Modulation (ratio of the level of intensity of expression in log2 in two stages of differentiation), FC − D7 / Modulation (ratio of the level of intensity of expression in log2 in two stages of differentiation), WD − FC / Abundance (%), D0 / Abundance (%), D7 / Abundance (%), FC / Abundance (%), WD: HTS; for Abundance (%), D0: ALI-D0; for Abundance (%), D7: ALI-D7; for Abundance (%), FC: ALI-FC; for Abundance (%), WD: ALI-WD; for Level of intensity of expression in log2 At the differentiated stage (WD) measured in HTS: healthy human airway epithelial tissue; for Level of intensity of expression in log2 measured by high-throughput sequencing, D0: stage D0; for Level of intensity of expression in log2 measured by high-throughput sequencing, D7: stage D7; for Level of intensity of expression in log2 measured by high-throughput sequencing, FC: stage FC; for Level of intensity of expression in log2 At the differentiated stage (WD) measured in HTS / Level of intensity of expression in log2 measured by high-throughput sequencing, WD: stage WD
Summary of the method: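 Total RNA (with small RNAs) from air-liquid-interface HAECs at ALI-D0, D7, first cilia (~14 d) and fully differentiated (~21 d); adaptor-ligated SOLiD small-RNA libraries, RT-PCR, gel-selected ~105-150 bases. Counts normalized to 10^6 sequences as % abundance; linear-model/empirical Bayes; kept >1% abundance, |Log2 Ratio| <0.5, adjusted P <0.05.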

[2] = test system: human airway epithelial cells (HAECs); assay: Agilent miRNA chips, miRNA expression at four stages of differentiation of HAECs; conditions: for Modulation (ratio of the level of intensity of expression in log2 in two stages of differentiation) measured with the Agilent chips, D7 − D0 / Modulation (ratio of the level of intensity of expression in log2 in two stages of differentiation) measured with the Agilent chips, FC − D7 / Modulation (ratio of the level of intensity of expression in log2 in two stages of differentiation) measured with the Agilent chips, WD − D0 / Modulation (ratio of the level of intensity of expression in log2 in two stages of differentiation) measured with the Agilent chips, WD − FC / Level of intensity of expression in log2 measured with the Agilent chips, D0 / Level of intensity of expression in log2 measured with the Agilent chips, D7 / Level of intensity of expression in log2 measured with the Agilent chips, FC / Level of intensity of expression in log2 measured with the Agilent chips, WD: Table VI; for Modulation (ratio of the level of intensity of expression in log2 at two stages of differentiation), FC − D7 / Modulation (ratio of the level of intensity of expression in log2 at two stages of differentiation), WD − FC: Agilent miRNA chips, Table V; for Level of intensity of expression in log2 measured with the Agilent chips, D0: stage D0; for Level of intensity of expression in log2 measured with the Agilent chips, D7: stage D7; for Level of intensity of expression in log2 measured with the Agilent chips, FC: stage FC; for Level of intensity of expression in log2 measured with the Agilent chips, WD: stage WD
Summary of the method: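 Arrays probing 866 human and 89 human viral miRNAs were used in parallel with sequencing. The same patients' RNA was labelled and hybridized following the manufacturer's protocol.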

[3] = test system: basal cells and pyramidal cells of the airway epithelium; assay: miRNA expression in sorted basal cells versus pyramidal cells (ciliated + secretory), HTS and Agilent chips; parameters: species or system human; conditions: for Modulation of expression of the miRNAs in pyramidal cells (323(−)) relative to basal cells 323(+): HTS and Agilent chips; for Intensity of the level of expression in log2 in pyramidal cells (323(−)): pyramidal cells (ciliated + secretory)
Summary of the method: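 Nasal polyp or concha epithelial cells from 3 donors FACS-sorted into CD151+/tissue factor+ basal cells and CD151−/TF− pyramidal (ciliated plus mucus-secreting) cells, excluding dead (DAPI) cells and doublets. miRNA profiles from total RNA obtained by Agilent chips or high-throughput sequencing.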

Row | Substance | Modulation (ratio of the level of intensity of expression in log2 in two stages of differentiation) measured by high-throughput sequencing, D7 − D0 [1] [log2] | Modulation (ratio of the level of intensity of expression in log2 in two stages of differentiation) measured by high-throughput sequencing, FC − D7 [1] [log2] | Modulation (ratio of the level of intensity of expression in log2 in two stages of differentiation) measured by high-throughput sequencing, WD − D0 [1] [log2] | Modulation (ratio of the level of intensity of expression in log2 in two stages of differentiation) measured by high-throughput sequencing, WD − FC [1] [log2] | Level of intensity of expression in log2 At the differentiated stage (WD) measured in HTS [1] [log2] | Level of intensity of expression in log2 measured by high-throughput sequencing, D0 [1] [log2] | Level of intensity of expression in log2 measured by high-throughput sequencing, D7 [1] [log2] | Level of intensity of expression in log2 measured by high-throughput sequencing, FC [1] [log2] | Level of intensity of expression in log2 measured by high-throughput sequencing, WD [1] [log2] | Modulation (ratio of the level of intensity of expression in log2 in two stages of differentiation) measured with the Agilent chips, D7 − D0 [2] [log2] | Modulation (ratio of the level of intensity of expression in log2 in two stages of differentiation) measured with the Agilent chips, FC − D7 [2] [log2] | Modulation (ratio of the level of intensity of expression in log2 in two stages of differentiation) measured with the Agilent chips, WD − D0 [2] [log2] | Modulation (ratio of the level of intensity of expression in log2 in two stages of differentiation) measured with the Agilent chips, WD − FC [2] [log2] | Level of intensity of expression in log2 measured with the Agilent chips, D0 [2] [log2] | Level of intensity of expression in log2 measured with the Agilent chips, D7 [2] [log2] | Level of intensity of expression in log2 measured with the Agilent chips, FC [2] [log2] | Level of intensity of expression in log2 measured with the Agilent chips, WD [2] [log2] | Modulation of expression of the miRNAs in pyramidal cells (323(−)) relative to basal cells 323(+) [3] | Intensity of the level of expression in log2 in basal cells (323(+)) [3] [log2] | Intensity of the level of expression in log2 in pyramidal cells (323(−)) [3] [log2] | other results
1 | hsa-miR-34c-5p: human miRNA, SEQ ID No. 40 (AGGCAGUGUAGUUAGCUGAUUGC; expressed or natural sequence; listed as Homo sapiens) | 1.33 | 4.02 | 6.41 | 1.06 | 0.01 | 7.88 | 9.21 | 13.23 | 14.29 | 2.35 | 4.27 | 7.44 | 0.82 | 3.94 | 6.29 | 10.56 | 11.39 | 5.74 | 4.75 | 10.49 | Modulation (ratio of the level of intensity of expression in log2 in two stages of differentiation), D7 − D0 [1]: 1.33 log2; Modulation (ratio of the level of intensity of expression in log2 in two stages of differentiation), FC − D7 [1]: 4.02 log2; Modulation (ratio of the level of intensity of expression in log2 in two stages of differentiation), WD − FC [1]: 1.06 log2; Abundance (%), D0 [1]: 0.05%; Abundance (%), D7 [1]: 0.13%; Abundance (%), FC [1]: 2.05%; Abundance (%), WD [1]: 3.23%; Modulation (ratio of the level of intensity of expression in log2 at two stages of differentiation), FC − D7 [2]: 4.27 log2; Modulation (ratio of the level of intensity of expression in log2 at two stages of differentiation), WD − FC [2]: 0.82 log2
2 | hsa-miR-92b: human miRNA, SEQ ID No. 49 (UAUUGCACUCGUCCCGGCCUCC; expressed or natural sequence; listed as Homo sapiens) | 1.21 | 4.12 | 5.93 | 0.60 | 0.01 | 7.49 | 8.70 | 12.82 | 13.42 | 0.48 | 4.21 | 4.39 | −0.29 | 0.10 | 0.57 | 4.78 | 4.49 | 1.67 | 0.40 | 2.07 | Modulation (ratio of the level of intensity of expression in log2 in two stages of differentiation), D7 − D0 [1]: 1.21 log2; Modulation (ratio of the level of intensity of expression in log2 in two stages of differentiation), FC − D7 [1]: 4.12 log2; Modulation (ratio of the level of intensity of expression in log2 in two stages of differentiation), WD − FC [1]: 0.60 log2; Abundance (%), D0 [1]: 0.04%; Abundance (%), D7 [1]: 0.09%; Abundance (%), FC [1]: 1.54%; Abundance (%), WD [1]: 1.77%
3 | hsa-miR-96: human miRNA, SEQ ID No. 51 (UUUGGCACUAGCACAUUUUUGCU; expressed or natural sequence; listed as Homo sapiens) | −0.08 | −0.71 | 0.02 | 0.81 | 12.65 | 5.41 | 5.33 | 4.62 | 5.43 | 1.19 | −0.50 | 0.64 | −0.04 | 8.52 | 9.71 | 9.21 | 9.16 | −1.51 | 6.81 | 5.30 | Modulation (ratio of the level of intensity of expression in log2 at two stages of differentiation), FC − D7 [2]: −0.50 log2; Modulation (ratio of the level of intensity of expression in log2 at two stages of differentiation), WD − FC [2]: −0.04 log2
4 | hsa-miR-99a: human miRNA, SEQ ID No. 52 (AACCCGUAGAUCCGAUCUUGUG; expressed or natural sequence; listed as Homo sapiens) | 1.43 | 0.77 | 2.88 | 0.69 | 9.00 | 9.77 | 11.19 | 11.96 | 12.65 | 2.33 | 0.77 | 3.28 | 0.19 | 5.02 | 7.35 | 8.12 | 8.31 | 0.99 | 5.42 | 6.40 | Modulation (ratio of the level of intensity of expression in log2 in two stages of differentiation), D7 − D0 [1]: 1.43 log2; Modulation (ratio of the level of intensity of expression in log2 in two stages of differentiation), FC − D7 [1]: 0.77 log2; Modulation (ratio of the level of intensity of expression in log2 in two stages of differentiation), WD − FC [1]: 0.69 log2; Abundance (%), D0 [1]: 0.19%; Abundance (%), D7 [1]: 0.52%; Abundance (%), FC [1]: 0.85%; Abundance (%), WD [1]: 1.03%; Modulation (ratio of the level of intensity of expression in log2 at two stages of differentiation), FC − D7 [2]: 0.77 log2; Modulation (ratio of the level of intensity of expression in log2 at two stages of differentiation), WD − FC [2]: 0.19 log2
